According to patent publication US20240384268A1, “Oligonucleotides” (Hudson Institute of Medical Research, priority 2021, published 2024):
In the oligonucleotide strings, read from the 5' end, every base follows the letter of its sugar. An asterisk marks phosphorothioate; unmarked linkages are phosphodiester. Other units and linkages are bracketed, terminal groups are in braces. A string of capitals states the bases alone. d = 2'-deoxy (DNA); m = 2'-O-methyl

Columns and labels:
STING = target: T1, STING (Homo sapiens, UniProt Q86WV6); assay: STING agonist (GSK, DMXAA)-driven IP-10 in MG-63 cells and immortalised mouse BMDMs; assay type: cell-based; conditions: C2-Mut1 500 nM 6 h (GSK 100 nM, DMXAA 50 μg/ml); MOE/LNA ASOs 1 mM as printed (GSK, MG-63)
T1 construct: host or cells: MG-63 (human osteosarcoma)
T1 sequence (Q86WV6 whole entry): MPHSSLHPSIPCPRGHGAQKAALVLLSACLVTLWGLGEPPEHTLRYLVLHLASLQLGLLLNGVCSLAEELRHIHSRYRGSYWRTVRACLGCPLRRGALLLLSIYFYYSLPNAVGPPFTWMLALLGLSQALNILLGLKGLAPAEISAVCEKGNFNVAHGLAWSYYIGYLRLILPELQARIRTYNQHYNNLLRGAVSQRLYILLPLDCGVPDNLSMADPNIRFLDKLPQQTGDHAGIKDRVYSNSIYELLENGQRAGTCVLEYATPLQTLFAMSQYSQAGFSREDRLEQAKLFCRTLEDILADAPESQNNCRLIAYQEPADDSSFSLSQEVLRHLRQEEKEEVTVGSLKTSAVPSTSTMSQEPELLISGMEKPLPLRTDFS

cGAS [1] = target: T2, cGAS (Homo sapiens, UniProt Q8N884); assay: IFN-driven gene expression in BJ hTERT SV40T fibroblasts (constitutive cGAS activation), RT-qPCR; conditions: ASO transfected 20-100 nM overnight
T2 sequence (Q8N884 whole entry): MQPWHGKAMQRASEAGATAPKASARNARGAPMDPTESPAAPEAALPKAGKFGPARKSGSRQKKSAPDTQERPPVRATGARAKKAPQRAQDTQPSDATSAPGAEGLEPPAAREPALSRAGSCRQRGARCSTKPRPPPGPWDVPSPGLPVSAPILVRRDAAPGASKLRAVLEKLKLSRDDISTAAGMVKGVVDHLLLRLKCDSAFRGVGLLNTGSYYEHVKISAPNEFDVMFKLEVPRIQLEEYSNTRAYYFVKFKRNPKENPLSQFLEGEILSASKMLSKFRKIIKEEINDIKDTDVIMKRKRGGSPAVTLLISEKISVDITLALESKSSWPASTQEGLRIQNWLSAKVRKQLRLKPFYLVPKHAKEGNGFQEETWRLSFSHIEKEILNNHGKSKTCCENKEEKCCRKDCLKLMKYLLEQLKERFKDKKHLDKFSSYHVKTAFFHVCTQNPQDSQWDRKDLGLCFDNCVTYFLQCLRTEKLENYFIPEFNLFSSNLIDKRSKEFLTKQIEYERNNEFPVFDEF

cGAS [2] = target: T2, cGAS; assay: ISD70-driven IP-10 production in HT-29 cells, ELISA; assay type: cell-based; set-up: endogenous in cells; conditions: ISD70 24 h
cGAS [3] = target: cGAS (Mus musculus, UniProt Q8C6L5); assay: ISD-driven IP-10 production in immortalised mouse BMDMs; assay type: cell-based; set-up: endogenous in cells; host or cells: immortalised wild-type mouse bone marrow macrophages (iBMDMs); conditions: iBMDMs; 500 nM ASO; ISD overnight
Sequence of cGAS (Mus musculus, UniProt Q8C6L5) (Q8C6L5 whole entry): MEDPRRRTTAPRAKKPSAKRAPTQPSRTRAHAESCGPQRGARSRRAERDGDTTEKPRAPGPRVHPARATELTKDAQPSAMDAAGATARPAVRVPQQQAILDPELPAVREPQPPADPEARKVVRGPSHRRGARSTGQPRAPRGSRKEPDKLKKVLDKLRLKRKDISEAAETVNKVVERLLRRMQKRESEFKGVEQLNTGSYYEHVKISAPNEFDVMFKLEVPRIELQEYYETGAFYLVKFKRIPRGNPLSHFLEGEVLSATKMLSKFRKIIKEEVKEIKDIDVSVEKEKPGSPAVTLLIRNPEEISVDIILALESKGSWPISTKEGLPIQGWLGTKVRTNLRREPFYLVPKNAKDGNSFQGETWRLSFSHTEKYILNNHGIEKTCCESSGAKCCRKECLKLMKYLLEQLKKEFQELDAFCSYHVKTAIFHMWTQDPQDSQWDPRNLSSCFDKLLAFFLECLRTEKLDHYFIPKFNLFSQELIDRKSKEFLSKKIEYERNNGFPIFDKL

cGAS [4] = target: T2, cGAS; assay: ISD70-driven IP-10 production in MG-63 cells; assay type: cell-based; set-up: endogenous in cells; conditions: C2-Mut1 500 nM 6 h, or ASO847 series ~30 min, ISD70 overnight
THP-1 and HT-29 cells = assay: Cell viability, resazurin; conditions: THP-1 100 nM, HT-29 187.5 nM; 6 h, with or without ISD70 overnight

With “mG*mC*mG*mG*mU*A*T*C*C*A*T*G*T*C*C*mC*mA*mG*mG*mC (mG*mC*mG*mG*mU*dA*dT*dC*dC*dA*dT*dG*dT*dC*dC*mC*mA*mG*mG*mC; antisense) [C2-Mut1]” the “IP-10 production driven by STING synthetic agonists (in words)” value (STING) was “did not significantly affect IP-10 production”, the “inhibition of constitutively expressed ISGs (IFIT1, IFIT2, IFI44; in words)” value (cGAS [1]) was “significantly more potent than its two nucleotide variant C2-Mut1v3” and the “inhibition of ISD70-dependent IP-10 production (in words)” value (cGAS [2]; 187.5 nM ASO overnight) was “most inhibitory sequence of ISD70 sensing”. For the same substance, the “effect on ISD70-induced IP-10 production at low dose (in words)” value (cGAS [2]; ASO overnight at 125 nM (62.5-125 nM)) was “increased inhibitory activity”, the “ISD-induced IP-10 in immortalised mouse BMDMs (in words)” value (cGAS [3]) was “significantly impacting ISD sensing” and the “inhibition of ISD sensing in MG-63, 2′OMe ASOs (in words)” value (cGAS [4]) was “significantly impacting ISD sensing”. For the same substance, the cell viability (THP-1 and HT-29 cells) was “did not significantly impact cell viability”.
